Columns and labels:
[1] = system: chemokine/cytokine-associated genes; assay: Gene expression analysis of tissue in vicinity of embedded bFGF-containing agarose rod; type: in vivo, rat; conditions: Day 7 after embedding, versus bFGF-free agarose rod group
From the text: On Day 7 after embedding of the bFGF-containing agarose rod by the same operation as in Example 4, the tissue in the vicinity of the place where the rod was embedded was collected. The collected tissue was immediately impregnated with RNA later solution (Life Technologies) to inhibit RNA degradation. RNA in the tissue was extracted by the column method. The extracted RNA was amplified by the Express kit method (Affymetrix) and biotin-labeled, followed by hybridization with a Rat Genome 230 2.0 array (Affymetrix). Signals were read by a Hewlett-Packard GeneArray Scanner G2500A. By such a process, gene expression analysis was carried out for three tissue samples obtained from the vicinities of bFGF-containing agarose rods and three tissue samples obtained from the vicinities of control bFGF-free agarose rods. The obtained fluorescence intensities were standardized and normalized, and then subjected to statistical analysis. The standardized and normalized gene expression level was statistically compared between the bFGF-containing agarose rod group and the control bFGF-free agarose rod group. Genes showing increased expression in the bFGF-containing agarose rod group were plotted such that their values along the X-axis became positive. Log 2 conversion was carried out in terms of the X-axis. […]

[2] = system: regulatory T cells (CD4+Foxp3+ cells); assay: Flow cytometry of immune cells at site where bFGF-containing agarose rod was embedded: regulatory T cells; type: in vivo, ACI rats; conditions: for ratio of Foxp3+ cells among CD4+ cells: STZ-diabetic ACI rats
Method: (§1) In a polystyrene tube with an inner diameter of 4 mm, 4.5 agarose solution was poured, and the tube was then left to stand at normal temperature to allow gelation of the agarose solution. The resulting agarose gel rod was removed from the polystyrene tube, and cut into a piece having a length of 25 mm. Subsequently, the agarose gel rod was stored in a freezer at −30° C. overnight to allow freezing of water. By freeze-drying the frozen agarose rod, a porous dry agarose rod was prepared. To the dry agarose rod, 100 μl of 500 μg/ml bFGF solution (FIBLAST Spray 500, Kaken Pharmaceutical Co., Ltd.) was added dropwise to include the bFGF solution in the dry agarose rod.
(§2) On the day when the agarose rod was to be embedded, streptozotocin (STZ) (60 mg/kg body weight) was administered to ACI rats to induce diabetes. To each of the left side and the right side of the back of each ACI rat, the agarose rod having a length of 25 mm and a diameter of 4 mm containing 50 μg of bFGF was embedded. On Day 7 after the embedding, the agarose rod was pulled out. In the vicinity of each place where the agarose rod had been embedded, formation of connective tissue containing a number of blood vessels was found. This tissue was collected, and then minced with scissors, followed by homogenization. The cells were then subjected to purification by Percoll density gradient centrifugation to obtain immune cells, and the obtained immune cells were analyzed using a flow cytometer.
The ratio of Foxp3^+ cells among CD4^+ cells was 25.4% on Day 2, 24.4% on Day 7, 24.4% on Day 10, and 26.4% on Day 14 after the bFGF-containing agarose rod was embedded under the skin.

[3] = system: myeloid-derived suppressor cells (MDSCs); assay: Flow cytometry for CD11b/c and granulocytes at site where bFGF-containing agarose rod was embedded; type: in vivo, ACI rats; conditions: group in which the agarose rod-bFGF was embedded
Method: as §1
as §2, with “This tissue was collected, and then minced with scissors, followed by homogenization.” left out, “cytometer. […]” for “cytometer.”

For “bFGF: basic fibroblast growth factor; bFGF solution (FIBLAST Spray 500, Kaken Pharmaceutical Co., Ltd.)”, the “expression of genes associated with migration/induction of regulatory T cells among chemokine/cytokine-associated genes” value [1] was “significant increase”, the “expression of genes not associated with migration/induction of regulatory T cells among chemokine/cytokine-associated genes” value [1] was “significant decrease” and the “ratio of Foxp3+ cells among CD4+ cells” value ([2]; Day 2 after rod with 50 μg bFGF embedded under the skin) was 25.4%. The “ratio of Foxp3+ cells among CD4+ cells” value ([2]; Day 7 after rod with 50 μg bFGF embedded under the skin) was 24.4%, the “ratio of Foxp3+ cells among CD4+ cells” value ([2]; Day 10 after rod with 50 μg bFGF embedded under the skin) was 24.4% and the “ratio of Foxp3+ cells among CD4+ cells” value ([2]; Day 14 after rod with 50 μg bFGF embedded under the skin) was 26.4%. For the same substance, the “increase of ratio of regulatory T cells” value ([2]; versus about 10% in normal subcutaneous tissues and bFGF-free agarose rod-embedded rats) was 2- to 3 fold, the granulocyte marker [3] was “increase” and the “myeloid-derived suppressor cells (MDSCs)” value [3] was “induced”.

From patent US10238714B2, “Method for forming an immune-tolerant site and method for attracting immunosuppressive cells” (KYOTO UNIVERSITY, priority 2015, dated 2019)
